Experimental data: patent US5284853A, “Angiotensin II receptor blocking 2,3,6 substituted quinazolinones” (American Cyanamid Company, priority 1993, dated 1994)
pIC50: −log10 of the molar value.

Target: T1, Angiotensin II Receptor (Bos taurus, UniProt P25104)
T1 construct: The brownish tissue forming the adrenal cortex is scraped off and finely minced with scissors before homogenization; tissue local slaughter house (Maxwell-Cohen); host or cells: beef adrenal cortex, microsomal membranes (100,000×g pellet)
T1 sequence (P25104 1-359): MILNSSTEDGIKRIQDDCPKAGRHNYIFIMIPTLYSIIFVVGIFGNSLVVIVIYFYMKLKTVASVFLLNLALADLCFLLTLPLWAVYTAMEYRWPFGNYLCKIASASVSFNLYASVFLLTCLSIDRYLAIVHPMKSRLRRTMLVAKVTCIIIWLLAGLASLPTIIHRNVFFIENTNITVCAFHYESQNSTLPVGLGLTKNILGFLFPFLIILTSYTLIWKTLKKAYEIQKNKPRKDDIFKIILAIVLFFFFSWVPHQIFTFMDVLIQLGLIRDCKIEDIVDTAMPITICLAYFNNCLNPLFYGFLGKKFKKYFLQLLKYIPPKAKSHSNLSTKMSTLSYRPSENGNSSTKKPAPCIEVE
Assay: Receptor binding assay: competition of [^125 I](Sar^1,Ile^8)AngII binding to beef adrenal cortex microsomal membranes
Details: 60 min, room temperature, pH 7.4

## CCCCc1nc2ccc(C3CC(c4ccc(C)o4)=NO3)cc2c(=O)n1Cc1ccc(-c2ccccc2-c2nnn[nH]2)cc1 (stereo not shown) [Example 19]
  pIC50: 6.77
